Assay results: publication PMC6934184, “Selective DNA-PKcs inhibition extends the therapeutic index of localized radiotherapy and chemotherapy” (The Journal of Clinical Investigation, 2019)

Molecular target: T1, ABL1 G250E (Homo sapiens, UniProt P00519, G250E)
T1 construct: purchased Thermo Fisher Scientific (Life Technologies) SelectScreen
Experiment: SelectScreen Z'LYTE
Format: biochemical
Procedure, shortened: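 Compound tested in SelectScreen activity assays, Z'LYTE for CSF1R, CDK1/cyclin B and MAP2K6 and Adapta for CAMK1. ATP for CAMK1 was listed as 10, and Km app was used for CSF1R. Results are expressed in percent.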

## CN(C(=O)CN1CCOCC1)c1ccc2sc3c(-c4cccc5c(=O)cc(N6CC7CCC(C6)O7)oc45)cccc3c2c1 [NU5455]
  inhibition at 1 µM: -8.5%
